This note sets out measurements from article PMC7735645 (Journal of the American Chemical Society, 2019).

For data set [1], the system named is A549 cells. As to the kind of experiment: NPM1 relocalization. Format: cell-based. To be noted: for NPM1 redistribution: free ligand alone, Figures S2 and S3.
The test system of data set [2] is A549 cells. The data set can be described thus: 24 h IC50. Format: cell-based. To be noted: read-out: 24 h IC50 value, Table S1.
Another data set deals with DNA damage. As to the kind of experiment: DNA damage in treated cells. To be noted: early time points, unpublished data from the authors' lab. Format: cell-based.
A short description of data set [3]: water/octanol partition coefficient. Format: physicochemical.
[4] abbreviates: A549 cells, 24 h treatment, 10 μM.

For the compound `O=C1[O][Pt]2([NH][C@@H]3CCCC[C@H]3[NH]2)[O]C1=O` [compound 2, oxaliplatin, reference compound], the “NPM1 redistribution / nucleolar stress induction” value is “induces robust redistribution of NPM1” in the data set on A549 cells [1] (setting [4]) and “robust NPM1 relocalization” in the data set on A549 cells [1] (A549 cells, 24 h treatment, 10 μM, listed as Oxaliplatin). For the same compound, the IC50 with A549 cells [2] came out at 81.5 µM. The “DNA damage relative to NPM1 relocation” value in the data set on DNA damage is reported as “no such damage occurs prior to observed NPM1 distribution”. With `N.N.O=C([O-])C(=O)[O-].[Pt+2]` [compound 5, DOAP], the “NPM1 redistribution / nucleolar stress induction” value in the data set on A549 cells [1] (setting [4]) was “does not induce stress”.

As to `O=C(O)C(=O)O` [oxalic acid ligand, oxalic acid, reference compound], the NPM1 redistribution entry in the data set with A549 cells [1] is recorded as “no influence on NPM1 redistribution”. `[NH2][Pt]1([NH2])[O]C(=O)C2(CCC2)C(=O)[O]1` [compound 3, carboplatin, reference compound]: the “NPM1 redistribution / nucleolar stress induction” value with A549 cells [1] (setting [4]) was “more closely resembles that of the no-treatment control”. For the compound `N.N.[Cl][Pt][Cl]` [compound 1, cisplatin, reference compound], the “NPM1 redistribution / nucleolar stress induction” value is given as “more closely resembles that of the no-treatment control” with A549 cells [1] (setting [4]) and “a small amount of NPM1 redistribution was observed” with A549 cells [1] (A549 cells, 24 h treatment, 10 μM, listed as cisplatin). In addition, the “DNA damage relative to NPM1 relocation” value in the data set on DNA damage is reported as “DNA damage occurs at early time points”. Consider `NC1CCCCC1N.[Cl][Pt][Cl]` (stereo not drawn) [compound 4, DACHPt], for which the “NPM1 redistribution / nucleolar stress induction” value in the data set on A549 cells [1] (setting [4]) is recorded as “induces robust nucleolar stress”. In data set [3], the “relative hydrophobicity (water/octanol partition coefficient, log P)” value was “more hydrophobic than the simpler diam(m)ine compounds”. For the compound Pentaplatin [compound 9], in the data set with A549 cells [1] (setting [4]), the “NPM1 redistribution / nucleolar stress induction” value is given as “found to induce nucleolar stress” and the “coefficient of variation (CV) of NPM1 intensity” value was “slightly higher resultant CV than positive controls or oxaliplatin”.

Consider `NC1CCCCC1N` (stereo not drawn) [DACH ligand, diaminocyclohexane, reference compound], for which the NPM1 redistribution entry with A549 cells [1] is recorded as “no influence on NPM1 redistribution”.
